Results from PubChem BioAssay (NCI).
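Values below derive from 48-hour exposures of cells grown in 96-well plates, with endpoints linearly interpolated between the two concentrations bracketing the appropriate inhibition level. The concentration for 50% growth inhibition is given as GI50. Definition used: TGI = concentration required for complete inhibition of growth.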

Columns and labels:
Assay in all cases: NCI tumour cell line growth inhibition, 48 h
HCT-15 colon = system: HCT-15 colon
IGROV1 ovarian = system: IGROV1 ovarian
SF-268 CNS = system: SF-268 CNS
SW-620 colon = system: SW-620 colon
CAKI-1 renal = system: CAKI-1 renal
SF-539 CNS = system: SF-539 CNS
U251 CNS = system: U251 CNS
COLO 205 colon = system: COLO 205 colon
NCI-H226 lung = system: NCI-H226 lung
PC-3 prostate = system: PC-3 prostate

| SMILES | TGI (HCT-15 colon) [µM] | TGI (IGROV1 ovarian) [µM] | TGI (SF-268 CNS) [µM] | TGI (SW-620 colon) [µM] | TGI (CAKI-1 renal) [µM] | TGI (SF-539 CNS) [µM] | TGI (U251 CNS) [µM] | GI50 (HCT-15 colon) [µM] | GI50 (IGROV1 ovarian) [µM] | GI50 (SF-268 CNS) [µM] | GI50 (SW-620 colon) [µM] | GI50 (COLO 205 colon) [µM] | TGI (COLO 205 colon) [µM] | GI50 (CAKI-1 renal) [µM] | GI50 (SF-539 CNS) [µM] | GI50 (U251 CNS) [µM] | GI50 (NCI-H226 lung) [µM] | TGI (NCI-H226 lung) [µM] | TGI (PC-3 prostate) [µM] |
| --- | --- | --- | --- | --- | --- | --- | --- | --- | --- | --- | --- | --- | --- | --- | --- | --- | --- | --- | --- |
| C/C(=N\NS(=O)(=O)c1ccc(C)cc1)c1ccc[n+]([O-])n1 | > 100 | > 100 | > 100 | > 100 | 85.3 | > 100 | > 100 |  |  |  |  |  |  |  |  |  |  |  |  |
| CC(C)OP(=O)(OC(C)C)C(N(C)C)P(=O)(OC(C)C)OC(C)C.[Cl][Sn]([Cl])([Cl])[c]1ccccc1 | > 100 | 92.7 | 31.7 | 22.3 | > 100 | 15.1 | > 100 | 3.11 | 3.61 | 2.9 | 3.26 | 2.1 | 12.5 | 3.7 | 3.46 | 4.47 | 2.05 | 9.69 |  |
| CC(C)OP(=O)(CP(=O)(OC(C)C)OC(C)C)OC(C)C.[CH3][Sn]([Br])([Br])[Br] | > 100 | > 100 | > 100 | > 100 | > 100 | > 100 | > 100 | > 100 | > 100 | > 100 | > 100 | > 100 | > 100 | > 100 | > 100 | > 100 | > 100 | > 100 |  |
| c1ccc(SCCCC(Sc2ccccc2)Sc2ccccc2)cc1 | > 100 | > 100 | > 100 | > 100 | > 100 | > 100 | > 100 |  |  |  |  |  | > 100 |  |  |  |  |  |  |
| COc1ccc(C[C@H]2C[C@@H](O)[C@@H](C)C/C=C/Cc3cccc(O)c3C(=O)O2)cn1 | 88.8 | 34.4 | 53.5 | > 100 | 54.6 | 37.8 | 36.1 | 28.9 | 13 | 15.9 | 31.6 | 34 | > 100 | 21.8 | 17.9 | 17.9 | 27.3 | > 100 |  |
| O=C(Oc1c(I)ccccc1=O)c1ccc([N+](=O)[O-])cc1 | 31.7 | 29.2 | 39.8 | 83.6 | 55.1 | 37.6 | 57.9 |  |  |  |  |  | 27.8 |  |  |  |  |  | 75.1 |
| COc1cc2c3c(c1OC)-c1ccccc1C(C(OC(C)=O)c1ccccc1)C3N(C)CC2 (stereo not drawn) | > 100 | > 100 | > 100 | > 100 | > 100 | > 100 | > 100 |  |  |  |  |  | > 100 |  |  |  |  | > 100 |  |
| Cc1nnc2n1N=C(CC(=O)c1ccc(O)cc1O)CN2N | 29.7 | > 100 | > 100 | 31 | > 100 | > 100 | > 100 |  |  |  |  |  | 35.8 |  |  |  |  |  |  |
| CC1=CC2=C(C)C3(CC3)[C@@](C)(O)C(=O)C2=C1 | 0.454 | > 0.979 | 0.456 | > 1 | 0.744 | 0.47 | 0.507 |  |  |  |  |  | 0.584 |  |  |  |  | 0.492 |  |
| CC(=O)NC1C(OCc2ccccc2)OC(COC(=O)CCCCCCCCCCNC(=O)c2cccc3c(=O)c4ccccc4[nH]c23)C(O)C1OC(C)C(=O)NC(C)C(=O)NC(CCC(N)=O)C(N)=O (stereo not drawn) | > 100 | > 100 | > 100 | > 100 | > 100 | > 100 | > 100 |  |  |  |  |  | > 100 |  |  |  |  | > 100 |  |
